These results are taken from patent US20240000767A1, “COMBINATION OF AN ALPHA2-ADRENOCEPTOR SUBTYPE C (ALPHA-2C) ANTAGONIST WITH A TASK1/3 CHANNEL BLOCKER FOR THE TREATMENT OF SLEEP APNEA” (Bayer Aktiengesellschaft, priority 2020, published 2024).

For orientation: IC50 means the concentration needed to halve the response being measured.

human ADRA2C receptor, sequence (P18825 whole entry): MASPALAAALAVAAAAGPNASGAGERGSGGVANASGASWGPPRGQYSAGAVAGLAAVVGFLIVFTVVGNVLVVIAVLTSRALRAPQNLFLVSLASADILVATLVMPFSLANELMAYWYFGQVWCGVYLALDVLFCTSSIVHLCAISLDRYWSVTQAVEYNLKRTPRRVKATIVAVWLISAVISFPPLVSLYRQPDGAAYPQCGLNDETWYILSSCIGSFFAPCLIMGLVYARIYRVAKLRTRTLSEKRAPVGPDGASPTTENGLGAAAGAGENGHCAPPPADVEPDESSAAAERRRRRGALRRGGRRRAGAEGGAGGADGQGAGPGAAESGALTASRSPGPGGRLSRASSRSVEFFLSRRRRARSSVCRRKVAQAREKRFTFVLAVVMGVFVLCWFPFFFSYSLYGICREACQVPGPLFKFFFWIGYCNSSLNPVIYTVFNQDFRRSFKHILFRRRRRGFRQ

This assay concerns the target human ADRA2C receptor (Homo sapiens (Human), UniProt P18825). Kind of assay: In vitro activity assay to determine the inhibition of recombinant ADRA2C (CHO-K1 cells, aequorin bioluminescence). Type of assay: cell-based. The following applies: inhibition of noradrenaline-induced bioluminescence signal; some mean values from multiple determinations; read-out: ARα2C IC50. How it is done: B-2. In Vitro Activity Assay to Determine the Inhibition of Recombinant ADRA2C
The human ADRA2C receptor belongs to the G protein(guanine-dependent protein)-coupled receptors, the main function of which is the transduction of signals into the interior of the cell.
The investigations of the inhibition of the recombinant human ADRA2C receptors were carried out with stabily transfected CHO-K1 cells coexpressing the Gaq protein and the calcium-sensitive photoprotein aequorin. In this recombinant system, binding of the agonists noradrenaline to the ADRA2C receptor leads, after activation of a signal cascade, to calcium release from intracellular stores, which is detected by the intracellular calcium sensor aequorin as a bioluminescent signal. The method is described in detail in the reference below. [Wunder F., Kalthof B., Muller T., Hueser J. Functional Cell-Based Assays in Microliter Volumes for Ultra-High Throughput Screening. Combinatorial Chemistry & High Throughput Screening, Volume 11, Number 7, 2008, pp. 495-504(10). doi.org/10.2174/138620708785204054]
The activity of the test substances was determined via their ability to inhibit the agonist-induced increase of the bioluminescence signal. The concentration which can block half of this signal increase is referred to as IC50. The IC50 value is calculated using the 4 parameter logistic function (Hill function):
Top=upper threshold, Bottom=lower threshold, Slope=slope, IC50=turning point
Regarding `O=C(NCc1ncc(F)cc1F)c1cnc(N2CCC(N3CCCC(OCC4CC4)C3)CC2)s1` (racemic) [Example 67, rac-2-[3-(Cyclopropylmethoxy)[1,4′-bipiperidin]-1′-yl]-N-[(3,5-difluoropyridin-2-yl)methyl]-1,3-thiazole-5-carboxamide], the IC50 amounted to 2.2 nM.
The figure for `O=C(NCc1ncc(F)cc1F)c1cnc(N2CCC(N3CCCC(COCC4CC4)C3)CC2)s1` (racemic) [Example 69, rac-2-{3-[(Cyclopropylmethoxy)methyl][1,4′-bipiperidin]-1′-yl}-N-[(3,5-difluoropyridin-2-yl)methyl]-1,3-thiazole-5-carboxamide] is 5.5 nM; for `CCOC1CCCN(C2CCN(c3ncc(C(=O)NCc4ncc(F)cc4F)s3)CC2)C1` (racemic) [Example 70, rac-N-[(3,5-Difluoropyridin-2-yl)methyl]-2-[3-ethoxy[1,4′-bipiperidin]-1′-yl]-1,3-thiazole-5-carboxamide] it is 22 nM.
The figure for `O=C(NCc1ncc(F)cc1F)c1cnc(N2CCC(N3CCCC(COCC4CC(F)(F)C4)C3)CC2)s1` (racemic) [Example 75, rac-2-(3-{[(3,3-Difluorocyclobutyl)methoxy]methyl}[1,4′-bipiperidin]-1′-yl)-N-[(3,5-difluoropyridin-2-yl)methyl]-1,3-thiazole-5-carboxamide] is 345 nM.
The figure for `O=C(NCc1ncc(F)cc1F)c1cnc(N2CCC(N3CCCC(OCC(F)(F)F)C3)CC2)s1` (racemic) [Example 77, rac-N-[(3,5-Difluoropyridin-2-yl)methyl]-2-[3-(2,2,2-trifluoroethoxy)[1,4′-bipiperidin]-1′-yl]-1,3-thiazole-5-carboxamide] is 640 nM; for `CC(C)C1CCCN(C2CCN(c3ncc(C(=O)NCc4ncc(F)cc4F)s3)CC2)C1` (racemic) [Example 103, rac-N-[(3,5-Difluoropyridin-2-yl)methyl]-2-(3-isopropyl[1,4′-bipiperidin]-1′-yl)-1,3-thiazole-5-carboxamide] it is 0.83 nM; for `O=C(NCc1ncc(F)cc1F)c1cnc(N2CCC(N3CCCC(OC4CCC4)C3)CC2)s1` (racemic) [Example 109, rac-2-[3-(Cyclobutyloxy)[1,4′-bipiperidin]-1′-yl]-N-[(3,5-difluoropyridin-2-yl)methyl]-1,3-thiazole-5-carboxamide] it is 0.85 nM.
For the compound `O=C(NCc1ncc(F)cc1F)c1cnc(N2CCC(N3CCCC(OC4CC(F)(F)C4)C3)CC2)s1` (racemic) [Example 110, rac-2-{3-[(3,3-Difluorocyclobutyl)oxy][1,4′-bipiperidin]-1′-yl}-N-[(3,5-difluoropyridin-2-yl)methyl]-1,3-thiazole-5-carboxamide], the IC50 is 1.5 nM.
The figure for `CCCC1CCCN(C2CCN(c3ncc(C(=O)NCc4ncc(F)cc4F)s3)CC2)C1` (racemic) [Example 121, rac-N-[(3,5-Difluoropyridin-2-yl)methyl]-2-(3-propyl[1,4′-bipiperidin]-1′-yl)-1,3-thiazole-5-carboxamide] is 0.65 nM; for `O=C(NCc1ncc(F)cc1F)c1cnc(N2CCC(N3CCCC(CCF)C3)CC2)s1` (racemic) [Example 127, rac-Formic acid N-[(3,5-difluoropyridin-2-yl)methyl]-2-[3-(2-fluoroethyl)[1,4′-bipiperidin]-1′-yl]-1,3-thiazole-5-carboxamide] it is 8.4 nM; for `O=C(NCc1ncc(F)cc1F)c1cnc(N2CCC(N3CCCC(c4ccccc4)C3)CC2)s1` (racemic) [Example 133, rac-N-[(3,5-Difluoropyridin-2-yl)methyl]-2-(3-phenyl[1,4′-bipiperidin]-1′-yl)-1,3-thiazole-5-carboxamide] it is 0.95 nM.
Then `CC(NC(=O)c1cnc(N2CCC(N3CCC[C@@H](C)C3)CC2)s1)c1cc(F)ccc1F` (single isomer, unassigned) [Example 46], with 8.3 nM; and `CC(NC(=O)c1cnc(N2CCC(N3CCC[C@@H](C)C3)CC2)s1)c1cc(F)ccc1F` (single isomer, unassigned) [Example 47], with 25 nM; and `C[C@@H]1CCCN(C2CCN(c3ncc(C(=O)NCc4ncc(F)cc4F)s3)CC2F)C1` (single isomer, unassigned) [Example 51], with 150 nM.
On to `C[C@@H]1CCCN(C2CCN(c3ncc(C(=O)NCc4ncc(F)cc4F)s3)CC2F)C1` (single isomer, unassigned) [Example 52], for which the IC50 is 6.7 nM.
Then `COCC1CCCN(C2CCN(c3ncc(C(=O)NCc4ncc(F)cc4F)s3)CC2)C1` (single isomer, unassigned) [Example 99, ent-N-[(3,5-Difluoropyridin-2-yl)methyl]-2-[3-(methoxymethyl) [1,4′-bipiperidin]-1′-yl]-1,3-thiazole-5-carboxamide], with 590 nM.
Then `CC1CCCN(C2CCN(c3ncc(C(=O)NCc4ncc(F)cc4F)s3)CC2)CC1` (single isomer, unassigned) [Example 104, ent-N-[(3,5-Difluoropyridin-2-yl)methyl]-2-[4-(4-methylazepan-1-yl)piperidin-1-yl]-1,3-thiazole-5-carboxamide], with 10 nM.
Then `CC1CCCN(C2CCN(c3ncc(C(=O)NCc4ncc(F)cc4F)s3)CC2)CC1` (single isomer, unassigned) [Example 105, ent-N-[(3,5-Difluoropyridin-2-yl)methyl]-2-[4-(4-methylazepan-1-yl)piperidin-1-yl]-1,3-thiazole-5-carboxamide], with 4.3 nM.
As for `O=C(NCc1ncc(F)cc1F)c1cnc(N2CCC(N3CCCC(COCC(F)(F)F)C3)CC2)s1` (single isomer, unassigned) [Example 106, ent-N-[(3,5-Difluoropyridin-2-yl)methyl]-2-{3-[(2,2,2-trifluoroethoxy)methyl][1,4′-bipiperidin]-1′-yl}-1,3-thiazole-5-carboxamide], the half-inhibitory concentration (IC50) is 0.5 nM.
`O=C(NCc1ncc(F)cc1F)c1cnc(N2CCC(N3CCCC(COCC(F)(F)F)C3)CC2)s1` (single isomer, unassigned) [Example 107, ent-N-[(3,5-Difluoropyridin-2-yl)methyl]-2-{3-[(2,2,2-trifluoroethoxy)methyl][1,4′-bipiperidin]-1′-yl}-1,3-thiazole-5-carboxamide]: the IC50 stood at 37 nM.
Regarding `CCOC1CCCN(C2CCN(c3ncc(C(=O)NCc4ncc(F)cc4F)s3)CC2)C1` (single isomer, unassigned) [Example 123, ent-N-[(3,5-Difluoropyridin-2-yl)methyl]-2-(3-ethoxy[1,4′-bipiperidin]-1′-yl)-1,3-thiazole-5-carboxamide], the IC50 turned out to be 260 nM.
For the compound `CCOC1CCCN(C2CCN(c3ncc(C(=O)NCc4ncc(F)cc4F)s3)CC2)C1` (single isomer, unassigned) [Example 124, ent-N-[(3,5-Difluoropyridin-2-yl)methyl]-2-(3-ethoxy[1,4′-bipiperidin]-1′-yl)-1,3-thiazole-5-carboxamide], the IC50 was determined as 2.9 nM.
In the case of `O=C(NCc1ncc(F)cc1F)c1cnc(N2CCC(N3CCCC(COCC4CC4)C3)CC2)s1` (single isomer, unassigned; ent-2) [Example 115, ent-2-{3-[(Cyclopropylmethoxy)methyl][1,4′-bipiperidin]-1′-yl}-N-[(3,5-difluoropyridin-2-yl)methyl]-1,3-thiazole-5-carboxamide], the IC50 stood at 0.61 nM.
The figure for `O=C(NCc1ncc(F)cc1F)c1cnc(N2CCC(N3CCCC(COCC4CC4)C3)CC2)s1` (single isomer, unassigned; ent-2) [Example 116, ent-2-{3-[(Cyclopropylmethoxy)methyl][1,4′-bipiperidin]-1′-yl}-N-[(3,5-difluoropyridin-2-yl)methyl]-1,3-thiazole-5-carboxamide] is 11 nM; for `O=C(NCc1ncc(F)cc1F)c1cnc(N2CCC(N3CCCC4(C3)CC4(F)F)CC2)s1` (single isomer, unassigned; ent-2) [Example 131, ent-2-[4-(1,1-Difluoro-5-azaspiro[2.5]octan-5-yl)piperidin-1-yl]-N-[(3,5-difluoropyridin-2-yl)methyl]-1,3-thiazole-5-carboxamide] it is 1.9 nM; for `O=C(NCc1ncc(F)cc1F)c1cnc(N2CCC(N3CCCC4(C3)CC4(F)F)CC2)s1` (single isomer, unassigned; ent-2) [Example 132, ent-2-[4-(1,1-Difluoro-5-azaspiro[2.5]octan-5-yl)piperidin-1-yl]-N-[(3,5-difluoropyridin-2-yl)methyl]-1,3-thiazole-5-carboxamide (enantiomer 2)] it is 0.71 nM.
On to `O=C(NCc1ncc(F)cc1F)c1cnc(N2CCC(N3CCc4ccccc4C3)CC2)s1` [Example 2, N-[(3,5-Difluoropyridin-2-yl)methyl]-2-[4-(3,4-dihydroisoquinolin-2(1H)-yl)piperidin-1-yl]-1,3-thiazole-5-carboxamide], for which the IC50 was 5.2 nM.
For the compound `Cc1nc(N2CCC(N3CCC[C@@H](C)C3)CC2)sc1C(=O)NCc1ncc(F)cc1F` [Example 8, N-[(3,5-difluoropyridin-2-yl)methyl]-4-methyl-2-[(3R)-3-methyl[1,4′-bipiperidin]-1′-yl]-1,3-thiazole-5-carboxamide], the IC50 came out at 591 nM.
